Laboratory results reported in patent US20100041089A1, “IMPROVED METHOD FOR DETECTING CHEMICAL […]” (priority 2006, published 2010).

System: yeast genes (expressed mRNA)
Assay: DNA chip measurement of expressed mRNA of yeast genes after culture with a toxic chemical substance
Assay type: cell-based, Saccharomyces cerevisiae S288C
Settings: for level of expressed mRNA in the presence of chemical substance / level in the absence of chemical substance: cultured two hours with the chemical substance; for The level of expressed mRNA in the presence of chemical substance/The level of expressed mRNA in the absence of chemical substance: cultured two hours with substance
Description: Yeast (Saccharomyces cerevisiae S288C (a SUC2mal mel gap2 CUP1)) were cultured at 25° C. on YPD medium (yeast extract 1%, polypeptone 2%, glucose 2%). One of toxic chemical substances was added to the cell at logarithmic growth phase, and the cell was further cultured for two hours. Cell was cultured without any chemical substance in the same condition, and was used as a control. Concentrations of the chemical substances were defined to inhibit the growth of the yeast but not lead to death.
After the completion of cultivation, the culture was centrifuged to collect the cells. To the cells, sodium acetate buffer (50 mM sodium acetate, 10 mM EDTA, 1% SDS) was added, and the mixture was shaken at 65° C. for five minutes, followed by returning to room temperature, and obtaining the supernatant, which procedure was repeated two times. To the supernatant, ½ amount of a solution of phenol/chloroform (1:1) was added, and the mixture was centrifuged to give a supernatant, an equal amount of chloroform was added, and the mixture was centrifuged to give a supernatant. To the supernatant, an equal amount of isopropanol containing 0.3 M sodium acetate was added, and the mixture was allowed to stand at room temperature for 30 minutes, after which the mixture was centrifuged to give sediment of the whole RNAs. Seventy % ethanol was added to the sediment, and the mixture was again centrifuged to give sediment, which was then dried and dissolved in water. mRNA was isolated from the whole RNAs as followings. In view of the fact that a poly A chain is attached to the 3′ terminus of mRNA, a polynucleotide having a poly T structure which was immobilized on the surface of latex beads was used to trap the mRNA, and then the mRNA was washed and eluted with spine column (Oligotex-dT30<Super>mRNA Purification Kit, Takara). Reverse transcription of the mRNA was conducted with a reverse transcriptase (Super Script II Reverse Transcriptase; catalogue No. 18064-014, GibcoBRL) using fluorescence-labeled nucleotides to give cDNAs that were introduced with Cy3-dUTP or Cy5-dUTP during the reverse transcription.
The labeled cDNAs were dissolved in TE buffer (10 mM Tris-HCl/1 mM EDTA, pH 8.0), and the solution was dropped on the DNA chip containing the whole genes of yeast (DNA Chip Research Inc. Japan) so that the cDNAs were hybridized on the DNA chip at 65° C. for over 12 hours. The fluoresces intensity of the DNA chip was read with a scanner, and the ratio relative to the fluorescence intensity resulting from the absence of chemical substance was estimated as the following, which is shown in Tables 1 to 9.
In the Tables, “Intensity” indicated in the rightmost column is a value of the level of expressed mRNA of each gene in control cells as divided by the average level of the expressions of the whole genes. A gene of which mRNA level is lower in control, and is higher in cases of addition of chemical substance, is especially useful in the detection of toxic substances.
Here, when a ratio of an amount of mRNA expressed in the presence of the chemical substance to an amount of mRNA expressed in the absence of the chemical substance is two or more, then it is considered significant.

CCCCCCCCCCCCc1ccc(S(=O)(=O)[O-])cc1.[Na+] [(17), Sodium dodecylbenzosulfonate]
1.0: The level of expressed mRNA in the presence of chemical substance/The level of expressed mRNA in the absence of chemical substance (yeast gene YNL234W) | The level of expressed mRNA in the presence of chemical substance/The level of expressed mRNA in the absence of chemical substance (yeast gene YNR068C) | level of expressed mRNA in the presence of chemical substance / level in the absence of chemical substance (yeast gene YPL180W) | level of expressed mRNA in the presence of chemical substance / level in the absence of chemical substance (yeast gene YPL225W) | The level of expressed mRNA in the presence of chemical substance/The level of expressed mRNA in the absence of chemical substance (yeast gene YPR023C) | level of expressed mRNA in the presence of chemical substance / level in the absence of chemical substance (yeast gene YPR049C) | level of expressed mRNA in the presence of chemical substance / level in the absence of chemical substance (yeast gene YPR146C)
0.9: level of expressed mRNA in the presence of chemical substance / level in the absence of chemical substance (yeast gene YNL063W) | The level of expressed mRNA in the presence of chemical substance/The level of expressed mRNA in the absence of chemical substance (yeast gene YNL281W) | level of expressed mRNA in the presence of chemical substance / level in the absence of chemical substance (yeast gene YOR253W) | level of expressed mRNA in the presence of chemical substance / level in the absence of chemical substance (yeast gene YPR148C)
2.1: level of expressed mRNA in the presence of chemical substance / level in the absence of chemical substance (yeast gene YOL026C) | The level of expressed mRNA in the presence of chemical substance/The level of expressed mRNA in the absence of chemical substance (yeast gene YPL087W)
1.7: The level of expressed mRNA in the presence of chemical substance/The level of expressed mRNA in the absence of chemical substance (yeast gene YNL092W) | The level of expressed mRNA in the presence of chemical substance/The level of expressed mRNA in the absence of chemical substance (yeast gene YNL305C) | The level of expressed mRNA in the presence of chemical substance/The level of expressed mRNA in the absence of chemical substance (yeast gene YOL032W) | The level of expressed mRNA in the presence of chemical substance/The level of expressed mRNA in the absence of chemical substance (yeast gene YOR019W)
1.1: The level of expressed mRNA in the presence of chemical substance/The level of expressed mRNA in the absence of chemical substance (yeast gene YNL074C) | level of expressed mRNA in the presence of chemical substance / level in the absence of chemical substance (yeast gene YNL253W) | level of expressed mRNA in the presence of chemical substance / level in the absence of chemical substance (yeast gene YNL276C) | The level of expressed mRNA in the presence of chemical substance/The level of expressed mRNA in the absence of chemical substance (yeast gene YOL036W) | The level of expressed mRNA in the presence of chemical substance/The level of expressed mRNA in the absence of chemical substance (yeast gene YOL131W) | level of expressed mRNA in the presence of chemical substance / level in the absence of chemical substance (yeast gene YOR022C) | level of expressed mRNA in the presence of chemical substance / level in the absence of chemical substance (yeast gene YOR138C) | level of expressed mRNA in the presence of chemical substance / level in the absence of chemical substance (yeast gene YPL168W) | The level of expressed mRNA in the presence of chemical substance/The level of expressed mRNA in the absence of chemical substance (yeast gene YPL222W) | level of expressed mRNA in the presence of chemical substance / level in the absence of chemical substance (yeast gene YPR172W)
0.7: level of expressed mRNA in the presence of chemical substance / level in the absence of chemical substance (yeast gene YNR051C) | level of expressed mRNA in the presence of chemical substance / level in the absence of chemical substance (yeast gene YPL188W)
0.6: level of expressed mRNA in the presence of chemical substance / level in the absence of chemical substance (yeast gene YNL176C)
1.8: The level of expressed mRNA in the presence of chemical substance/The level of expressed mRNA in the absence of chemical substance (yeast gene YNL156C)
2.7: The level of expressed mRNA in the presence of chemical substance/The level of expressed mRNA in the absence of chemical substance (yeast gene YOL150C)
1.5: The level of expressed mRNA in the presence of chemical substance/The level of expressed mRNA in the absence of chemical substance (yeast gene YOL047C) | The level of expressed mRNA in the presence of chemical substance/The level of expressed mRNA in the absence of chemical substance (yeast gene YOR197W) | level of expressed mRNA in the presence of chemical substance / level in the absence of chemical substance (yeast gene YPL221W)
1.4: The level of expressed mRNA in the presence of chemical substance/The level of expressed mRNA in the absence of chemical substance (yeast gene YOL083W) | level of expressed mRNA in the presence of chemical substance / level in the absence of chemical substance (yeast gene YPL150W) | The level of expressed mRNA in the presence of chemical substance/The level of expressed mRNA in the absence of chemical substance (yeast gene YPL196W) | The level of expressed mRNA in the presence of chemical substance/The level of expressed mRNA in the absence of chemical substance (yeast gene YPL206C)
1.3: The level of expressed mRNA in the presence of chemical substance/The level of expressed mRNA in the absence of chemical substance (yeast gene YOL071W) | The level of expressed mRNA in the presence of chemical substance/The level of expressed mRNA in the absence of chemical substance (yeast gene YOL117W) | level of expressed mRNA in the presence of chemical substance / level in the absence of chemical substance (yeast gene YOR267C) | The level of expressed mRNA in the presence of chemical substance/The level of expressed mRNA in the absence of chemical substance (yeast gene YPR151C)
0.8: level of expressed mRNA in the presence of chemical substance / level in the absence of chemical substance (yeast gene YNL058C) | level of expressed mRNA in the presence of chemical substance / level in the absence of chemical substance (yeast gene YNL194C) | level of expressed mRNA in the presence of chemical substance / level in the absence of chemical substance (yeast gene YOR087W) | level of expressed mRNA in the presence of chemical substance / level in the absence of chemical substance (yeast gene YOR325W)
1.6: The level of expressed mRNA in the presence of chemical substance/The level of expressed mRNA in the absence of chemical substance (yeast gene YNL115C) | The level of expressed mRNA in the presence of chemical substance/The level of expressed mRNA in the absence of chemical substance (yeast gene YOL082W)
1.2: level of expressed mRNA in the presence of chemical substance / level in the absence of chemical substance (yeast gene YNL200C) | The level of expressed mRNA in the presence of chemical substance/The level of expressed mRNA in the absence of chemical substance (yeast gene YOL162W) | level of expressed mRNA in the presence of chemical substance / level in the absence of chemical substance (yeast gene YPL005W) | level of expressed mRNA in the presence of chemical substance / level in the absence of chemical substance (yeast gene YPL152W)
